Data from the supplement of paper PMC10307832.

Key:
Assay in all cases: relative viability (nuclei count vs DMSO), 5 days (fraction); higher = more cells survive
Irinotecan + Bortezomib = compound: CCc1c2c(nc3ccc(OC(=O)N4CCC(N5CCCCC5)CC4)cc13)-c1cc3c(c(=O)n1C2)COC(=O)[C@]3(O)CC [Irinotecan] + CC(C)C[C@H](NC(=O)[C@H](Cc1ccccc1)NC(=O)c1cnccn1)B(O)O [Bortezomib] (partner 0.002 µM)
Summary of the method: (§1)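 Lung cancer cell lines in 1536-well plates got either a single drug or a fixed anchor-drug dose together with five library-drug doses (not always all listed) in √10 steps, by pin tool, on the day after seeding. Nuclei were counted after 5 days, and relative viability is the treated-to-vehicle ratio of nuclei counts. Values are medians of duplicate plates.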

MK-8033 + Foretinib = compound: Cn1cc(-c2cnc3ccc4ccc(CS(=O)(=O)NCc5ccccn5)cc4c(=O)c3c2)cn1 [MK-8033] + COc1cc2c(Oc3ccc(NC(=O)C4(C(=O)Nc5ccc(F)cc5)CC4)cc3F)ccnc2cc1OCCCN1CCOCC1 [Foretinib] (partner 0.25 µM)
Summary of the method: as §1

MK-8033 + Lapatinib = compound: Cn1cc(-c2cnc3ccc4ccc(CS(=O)(=O)NCc5ccccn5)cc4c(=O)c3c2)cn1 [MK-8033] + CS(=O)(=O)CCNCc1ccc(-c2ccc3ncnc(Nc4ccc(OCc5cccc(F)c5)c(Cl)c4)c3c2)o1 [Lapatinib] (partner 2 µM)
Summary of the method: as §1

MK-8033 + Crizotinib = compound: Cn1cc(-c2cnc3ccc4ccc(CS(=O)(=O)NCc5ccccn5)cc4c(=O)c3c2)cn1 [MK-8033] + C[C@@H](Oc1cc(-c2cnn(C3CCNCC3)c2)cnc1N)c1c(Cl)ccc(F)c1Cl [Crizotinib] (partner 1 µM)
Summary of the method: as §1

Row | Cell Line | relative viability (Irinotecan + Bortezomib; first compound 2 µM) | relative viability (Irinotecan + Bortezomib; first compound 6.325 µM) | relative viability (Irinotecan + Bortezomib; first compound 20 µM) | relative viability (MK-8033 + Foretinib; first compound 0.02 µM) | relative viability (MK-8033 + Foretinib; first compound 0.06325 µM) | relative viability (MK-8033 + Foretinib; first compound 0.2 µM) | relative viability (MK-8033 + Foretinib; first compound 0.6325 µM) | relative viability (MK-8033 + Foretinib; first compound 2 µM) | relative viability (MK-8033 + Lapatinib; first compound 0.02 µM) | relative viability (MK-8033 + Lapatinib; first compound 0.06325 µM) | relative viability (MK-8033 + Lapatinib; first compound 0.2 µM) | relative viability (MK-8033 + Lapatinib; first compound 0.6325 µM) | relative viability (MK-8033 + Lapatinib; first compound 2 µM) | relative viability (MK-8033 + Crizotinib; first compound 0.02 µM) | relative viability (MK-8033 + Crizotinib; first compound 0.06325 µM) | relative viability (MK-8033 + Crizotinib; first compound 0.2 µM) | relative viability (MK-8033 + Crizotinib; first compound 0.6325 µM) | relative viability (MK-8033 + Crizotinib; first compound 2 µM) | relative viability (Irinotecan + Bortezomib; first compound 0.6325 µM)
1 | NCI-H1651 | 0.849 | 0.553 | 0.227 | 0.844 | 0.637 | 0.879 | 0.692 | 0.648 | 0.842 | 0.658 | 0.874 | 0.892 | 0.762 | 0.852 | 0.832 | 0.846 | 0.938 | 0.862 | –
2 | NCI-H1355 | 1.12 | 0.561 | 0.265 | 0.888 | 0.886 | 0.961 | 0.862 | 0.909 | 0.979 | 0.865 | 0.865 | 0.988 | 0.909 | 1.07 | 0.988 | 1.03 | 1.05 | 1.02 | 1.02
3 | NCI-H1563 | 0.891 | 0.871 | 0.477 | 0.899 | 0.927 | 0.903 | 0.97 | 0.981 | 0.965 | 0.833 | 0.966 | 0.864 | 0.886 | 0.918 | 0.813 | 0.773 | 0.93 | 0.812 | 0.598
4 | NCI-H1650 | 0.198 | 0.244 | 0.133 | 1.13 | 1.04 | 1.07 | 1.08 | 0.951 | 0.823 | 0.69 | 0.737 | 0.709 | 0.707 | 0.997 | 0.867 | 0.996 | 0.919 | 0.832 | 0.188
5 | HCC-78 | 0.393 | 0.242 | 0.257 | 0.444 | – | 0.548 | 0.575 | 0.55 | 0.765 | 0.811 | 0.65 | – | 0.94 | 0.336 | 0.316 | 0.344 | – | 0.32 | 0.404
6 | NCI-H1437 | 0.355 | 0.285 | 0.171 | 1.21 | 1.3 | 1.19 | 1.23 | 1.19 | 0.736 | 0.773 | 0.793 | 0.834 | 0.749 | 1.04 | 0.723 | 0.545 | 0.877 | 0.918 | 0.399
7 | BEN | 0.561 | 0.218 | 0.296 | 0.642 | 0.541 | 0.527 | 0.606 | 0.646 | 0.695 | 0.679 | 0.649 | 0.738 | 0.75 | 0.895 | 0.763 | 0.838 | 0.89 | 0.773 | 0.547
8 | LCLC-103H | 0.76 | 0.518 | 0.557 | 0.747 | 0.707 | 0.696 | 0.84 | 0.806 | – | – | – | – | – | 1.02 | 0.926 | 0.99 | 1.06 | 1.04 | 0.813
9 | NCI-H1915 | 0.445 | 0.24 | 0.148 | 1.08 | 0.997 | 1.05 | 1.07 | 1.11 | 0.935 | 0.85 | 0.992 | 1 | 0.948 | 0.935 | 0.896 | 0.802 | 0.885 | 0.911 | 0.537
10 | NCI-H2085 | 1.01 | 0.535 | 0.494 | 0.914 | 0.75 | 1.23 | 0.919 | 0.951 | 0.746 | 0.646 | 0.695 | 0.743 | 0.806 | 0.873 | 0.804 | 0.867 | 0.801 | 0.977 | 0.847
11 | NCI-H23 | 0.664 | 0.291 | 0.306 | 0.826 | 0.932 | 0.961 | 1.02 | 0.942 | 1.27 | 0.818 | 0.919 | 1.35 | 1.09 | 0.446 | 0.391 | 0.487 | 0.468 | 0.552 | 0.941
12 | EPLC-272H | 0.635 | 0.317 | 0.217 | 0.608 | 0.537 | 0.61 | 0.605 | 0.507 | 0.905 | – | 0.914 | 1.05 | 0.903 | 1.09 | – | 0.88 | 0.843 | 0.866 | 0.744
13 | EBC-1 | 0.437 | 0.474 | 0.143 | 0.103 | 0.0762 | 0.0977 | 0.126 | 0.0876 | 0.182 | 0.218 | 0.217 | 0.21 | 0.203 | 0.158 | 0.16 | 0.193 | 0.193 | 0.188 | 0.421
14 | SK-MES-1 | – | – | – | 0.899 | 0.86 | 0.858 | 0.805 | 0.851 | 0.433 | 0.437 | 0.478 | 0.459 | 0.441 | 0.96 | 0.959 | 0.919 | 1.01 | 0.992 | –
15 | A549 | – | – | – | 0.962 | 0.853 | 0.892 | 0.985 | 0.945 | 0.911 | 0.954 | 0.967 | 0.946 | 1.02 | 0.719 | 0.713 | 0.703 | 0.848 | 0.677 | –
16 | NCI-H2126 | 1.08 | 0.632 | 0.34 | 1.13 | 0.998 | 1.16 | 1.18 | 1.15 | 0.743 | 0.653 | 0.744 | 0.779 | 0.803 | 1.04 | 0.927 | 0.973 | 0.976 | 0.951 | –
17 | NCI-H2087 | 0.476 | 0.18 | 0.248 | 1.03 | 1.11 | 0.889 | 1.16 | 0.957 | 0.991 | 1.11 | 1.11 | 0.859 | 0.98 | 0.957 | 0.746 | 0.883 | 0.989 | 0.836 | 0.442
